Measured values: ChEMBL document CHEMBL5303573, “Mapping human microbiome drug metabolism by gut bacteria and their genes” (Nature, 2019)

Tests used:
[1] = The drug is tested on Eggerthella lenta strain: ATCC25559 for biotransformation. The drug concentrations were measured before and after a 12-h incubation by liquid-chromatography-coupled mass spectrometry (LC–MS); settings: 2 µM
[2] = bacteroides stercoris, 12 h, 2 µM
Description: The drug is tested on Bacteroides stercoris strain: ATCC43183 for biotransformation. The drug concentrations were measured before and after a 12-h incubation by liquid-chromatography-coupled mass spectrometry (LC–MS)

[3] = The drug is tested on Ruminococcus torques strain: ATCC27756 for biotransformation. The drug concentrations were measured before and after a 12-h incubation by liquid-chromatography-coupled mass spectrometry (LC–MS); type: ADME; set-up: dose 2 uM, timepoint 0 vs 12 hours; settings: 2 µM
[4] = limosilactobacillus reuteri cf48-3a, 12 h, 2 µM
Description: The drug is tested on Lactobacillus reuteri CF48-3A strain: BEI HM-102 for biotransformation. The drug concentrations were measured before and after a 12-h incubation by liquid-chromatography-coupled mass spectrometry (LC–MS)

[5] = The drug is tested on Bacteroides vulgatus strain: ATCC8482 for biotransformation. The drug concentrations were measured before and after a 12-h incubation by liquid-chromatography-coupled mass spectrometry (LC–MS); settings: phocaeicola vulgatus, 2 µM
[6] = parabacteroides distasonis, 12 h, 2 µM
Description: The drug is tested on Parabacteroides distasonis strain: ATCC8503 for biotransformation. The drug concentrations were measured before and after a 12-h incubation by liquid-chromatography-coupled mass spectrometry (LC–MS)

SMILES | Bacterial Biotransformation [1] | Bacterial Biotransformation [2] | Bacterial Biotransformation [3] | Bacterial Biotransformation [4] | Bacterial Biotransformation [5] | Bacterial Biotransformation [6]
CN1CCc2c(c3ccccc3n2Cc2ccccc2)C1.CN1CCc2c(c3ccccc3n2Cc2ccccc2)C1.O=S(=O)(O)c1cccc2c(S(=O)(=O)O)cccc12 | Compound NOT metabolized | Compound NOT metabolized | Compound NOT metabolized | Compound NOT metabolized | Compound NOT metabolized | –
CN1CCC(OC(c2ccccc2)c2ccccc2)CC1 | – | Compound NOT metabolized | Compound NOT metabolized | Compound NOT metabolized | Compound NOT metabolized | –
CN(C)CC(c1ccc(O)cc1)C1(O)CCCCC1.O=C(O)CCC(=O)O (configuration not stated) [DESVENLAFAXINE SUCCINATE] | Compound NOT metabolized | Compound NOT metabolized | Compound NOT metabolized | – | Compound NOT metabolized | Compound NOT metabolized
Br.COc1ccc2c(c1)[C@]13CCCC[C@@H]1[C@H](C2)N(C)CC3.O [DEXTROMETHORPHAN HYDROBROMIDE] | – | Compound NOT metabolized | Compound NOT metabolized | Compound NOT metabolized | Compound NOT metabolized | –
C[C@H]1O[C@@H](O[C@H]2[C@@H](O)C[C@H](O[C@H]3[C@@H](O)C[C@H](O[C@H]4CC[C@@]5(C)[C@H](CC[C@@H]6[C@@H]5C[C@@H](O)[C@]5(C)[C@@H](C7=CC(=O)OC7)CC[C@]65O)C4)O[C@@H]3C)O[C@@H]2C)C[C@H](O)[C@@H]1O [DIGOXIN] | – | Compound metabolized | Compound NOT metabolized | Compound NOT metabolized | Compound metabolized | Compound NOT metabolized
O=C(Nc1ccccc1)OCC(CN1CCCCC1)OC(=O)Nc1ccccc1 (configuration not stated) [DIPERODON] | – | Compound NOT metabolized | Compound NOT metabolized | Compound NOT metabolized | Compound NOT metabolized | –
OCCN(CCO)c1nc(N2CCCCC2)c2nc(N(CCO)CCO)nc(N3CCCCC3)c2n1 [DIPYRIDAMOLE] | Compound NOT metabolized | Compound NOT metabolized | Compound NOT metabolized | Compound NOT metabolized | Compound metabolized | Compound NOT metabolized
CC(C)N(CCC(C(N)=O)(c1ccccc1)c1ccccn1)C(C)C.O=P(O)(O)O (configuration not stated) [DISOPYRAMIDE PHOSPHATE] | – | Compound NOT metabolized | – | Compound NOT metabolized | – | Compound NOT metabolized
CN(C)CCC=C1c2ccccc2COc2ccccc21 [DOXEPIN] | – | Compound NOT metabolized | Compound NOT metabolized | – | – | –
CCN(CC)C(C)CN1c2ccccc2Sc2ccccc21 (configuration not stated) [ETHOPROPAZINE] | – | Compound NOT metabolized | – | – | Compound metabolized | Compound metabolized
O=C1[C@H](CC[C@H](O)c2ccc(F)cc2)[C@@H](c2ccc(O)cc2)N1c1ccc(F)cc1 [EZETIMIBE] | – | Compound NOT metabolized | Compound NOT metabolized | Compound NOT metabolized | – | Compound NOT metabolized
CC(C)c1c(CN(C)C(C)Cc2ccccc2)n(C)n(-c2ccccc2)c1=O (configuration not stated) [FAMPROFAZONE] | – | Compound metabolized | Compound NOT metabolized | Compound metabolized | Compound metabolized | Compound metabolized
O=C1NCC2(CCN(CCc3ccccc3)CC2)O1 [FENSPIRIDE] | – | Compound metabolized | Compound NOT metabolized | Compound NOT metabolized | Compound NOT metabolized | –
OC(Cn1cncn1)(Cn1cncn1)c1ccc(F)cc1F [FLUCONAZOLE] | Compound NOT metabolized | Compound metabolized | Compound metabolized | Compound NOT metabolized | – | Compound NOT metabolized
COCCCC/C(=N\OCCN)c1ccc(C(F)(F)F)cc1.O=C(O)/C=C\C(=O)O [FLUVOXAMINE MALEATE] | – | – | Compound NOT metabolized | Compound NOT metabolized | Compound metabolized | –
COc1ccc2c3c1O[C@H]1C[C@@H](O)C=C[C@@]31CCN(C)C2 [GALANTAMINE] | – | Compound NOT metabolized | Compound NOT metabolized | – | Compound metabolized | –
Nc1nc(N)nc(-c2cc(Cl)ccc2Cl)n1.O=C(O)/C=C\C(=O)O [IRSOGLADINE MALEATE] | – | Compound NOT metabolized | Compound NOT metabolized | – | Compound NOT metabolized | –

SMILES | Bacterial Biotransformation [1] | Bacterial Biotransformation [2] | Bacterial Biotransformation [3] | Bacterial Biotransformation [4] | Bacterial Biotransformation [5] | Bacterial Biotransformation [6]
COC(=O)C1=C(C)NC(C)=C(C(=O)OC(C)C)C1c1cccc2nonc12 (configuration not stated) [ISRADIPINE] | Compound NOT metabolized | Compound NOT metabolized | Compound NOT metabolized | Compound NOT metabolized | Compound NOT metabolized | Compound NOT metabolized
CN1CCC(=C2c3ccccc3CC(=O)c3sccc32)CC1.O=C(O)/C=C/C(=O)O [KETOTIFEN FUMARATE] | Compound NOT metabolized | Compound NOT metabolized | Compound NOT metabolized | Compound NOT metabolized | – | Compound NOT metabolized
CC(CCc1ccccc1)NCC(O)c1ccc(O)c(C(N)=O)c1 (configuration not stated) [LABETALOL] | Compound NOT metabolized | Compound NOT metabolized | Compound NOT metabolized | Compound NOT metabolized | Compound NOT metabolized | Compound NOT metabolized
Nc1nnc(-c2cccc(Cl)c2Cl)c(N)n1 [LAMOTRIGINE] | – | Compound NOT metabolized | Compound NOT metabolized | Compound NOT metabolized | – | –
C#C[C@]1(O)CC[C@H]2[C@@H]3CCC4=CC(=O)CC[C@@H]4[C@H]3CC[C@@]21CC [LEVONORGESTREL] | Compound NOT metabolized | Compound metabolized | – | Compound NOT metabolized | Compound metabolized | Compound metabolized
CN1C(=O)CC(C)(c2ccccc2)C1=O (configuration not stated) [METHSUXIMIDE] | – | Compound NOT metabolized | Compound NOT metabolized | – | – | –
COCCc1ccc(OCC(O)CNC(C)C)cc1.COCCc1ccc(OCC(O)CNC(C)C)cc1.O=C(O)C(O)C(O)C(=O)O (configuration not stated) [METOPROLOL TARTRATE] | Compound NOT metabolized | – | Compound NOT metabolized | Compound NOT metabolized | Compound NOT metabolized | Compound NOT metabolized
CN1CCN2c3ccccc3Cc3ccccc3C2C1 (configuration not stated) [MIANSERIN] | – | Compound NOT metabolized | Compound NOT metabolized | Compound NOT metabolized | – | –
CC(C)[C@H]1CC[C@H](C(=O)N[C@H](Cc2ccccc2)C(=O)O)CC1 [NATEGLINIDE] | – | Compound NOT metabolized | Compound NOT metabolized | Compound NOT metabolized | Compound metabolized | Compound NOT metabolized
CN1CCOC(c2ccccc2)c2ccccc2C1 (configuration not stated) [NEFOPAM] | – | Compound NOT metabolized | Compound NOT metabolized | Compound NOT metabolized | – | Compound NOT metabolized
CN(C)C(=O)Oc1cccc([N+](C)(C)C)c1.[Br-] [NEOSTIGMINE BROMIDE] | Compound NOT metabolized | Compound NOT metabolized | Compound NOT metabolized | Compound NOT metabolized | – | Compound NOT metabolized
Cc1ccnc2c1NC(=O)c1cccnc1N2C1CC1 [NEVIRAPINE] | – | Compound NOT metabolized | Compound NOT metabolized | Compound NOT metabolized | Compound NOT metabolized | Compound NOT metabolized
Cc1ccccc1C(OCCN(C)C)c1ccccc1.O=C(O)CC(O)(CC(=O)O)C(=O)O (configuration not stated) [ORPHENADRINE CITRATE] | – | – | Compound NOT metabolized | Compound NOT metabolized | Compound NOT metabolized | Compound NOT metabolized
O=C(O)CCc1nc(-c2ccccc2)c(-c2ccccc2)o1 [OXAPROZIN] | – | Compound NOT metabolized | Compound NOT metabolized | Compound NOT metabolized | Compound metabolized | Compound metabolized
COc1ccc(Cc2nccc3cc(OC)c(OC)cc23)cc1OC [PAPAVERINE] | Compound NOT metabolized | Compound NOT metabolized | Compound NOT metabolized | Compound NOT metabolized | – | –
Fc1ccc([C@@H]2CCNC[C@H]2COc2ccc3c(c2)OCO3)cc1 [PAROXETINE] | – | Compound metabolized | Compound NOT metabolized | Compound NOT metabolized | Compound NOT metabolized | Compound NOT metabolized
CC(=O)CCCCn1c(=O)c2c(ncn2C)n(C)c1=O [PENTOXIFYLLINE] | – | Compound NOT metabolized | Compound NOT metabolized | – | – | –
